Experimental data from article PMC6523531, “Mechanistic Studies on the Absorption-Enhancing Effects of Gemini Surfactant on the Intestinal Absorption of Poorly Absorbed Hydrophilic Drugs in Rats” (Pharmaceutics, 2019).

Legend:
Caco-2 cell monolayers [1] = experiment: Transepithelial electrical resistance (TEER) of Caco-2 cell monolayers; format: cell-based, Human
Method: (§1) Caco-2 cells (passage 45) were cultured in 175-cm^2 culture flask (Thermo Fisher Scientific™, Waltham, MA, USA). The culture medium consisted of DMEM containing 10% FBS, 0.1 mM MEM–NEAA, 2 mM glutamine, 100 U/mL penicillin, and 100 µg/mL streptomycin [30]. Cells were cultured in a humidified atmosphere of 5% CO2 at 37 °C. The culture medium was changed every two days. When the cultured Caco-2 cells became sub-confluent, they were seeded onto 12-mm Transwell® with 0.4-µm pore polycarbonate membrane inserts (Corning Inc., New York, NY, USA) at a density of 1 × 10^5 cells/insert. The transepithelial transport studies were performed when the transepithelial electrical resistance (TEER) values were more than 500 Ω·cm^2 (i.e., after 21 days). Briefly, after removing the incubation medium by aspiration, the apical and basal sides were washed thrice by Hank’s Balanced Salt (HBSS) solution (pH 7.4). The cells were incubated in HBSS (pH 6.0) for the apical side and HBSS (pH 7.4) for the basal side for 20 min at 37 °C. HBSS supplemented with 1 mg/mL glucose was used in all cell culture experiments. After removing the washing solution by aspiration, 500 µL of 10 µM CF in a HBSS (pH 6.0) solution with or without various concentrations (0.001% v/v, 0.01% v/v, 0.025% v/v, 0.05% v/v, and 0.1% v/v) of SLG-30, 0.1% (w/v) and 1% (w/v) NaGC or 0.05% (w/v) sodium laurate were added to the apical side at zero time, whereas precisely 1500 µL of HBSS (pH 7.4) was added to the basal side at 37 °C. The cells were kept at 37 °C and 5% CO2 and were continuously agitated on a shaker during the transport experiments.
(§2) The TEER values were measured by Millicell® (ERS-2 Volt-Ohm Meter, Billerica, MA, USA) at the predetermined times up to 24 h, and the initial values were considered as 100%. The samples from the basal side were withdrawn at predetermined time points up to 24 h. The samples were replaced with an equal volume of HBSS (pH 7.4). CF was determined as previously mentioned. The apparent permeability coefficients Papp (cm/s) for the transported CF was determined by the following equation: Papp=dXR/dt×1/A×1/C0 where Papp is the apparent permeability coefficient in centimeters per second, XR is the amount of CF in moles in the receptor side, dXR/dt is the flux across the monolayer, A is the diffusion area (i.e., in square centimeters), and C0 is the initial concentration of CF in the donor side in moles per milliliter.

Caco-2 cells = experiment: Caco-2 cell damage by LDH release; format: cell-based, Human; details: after the transport studies, n = 6
Method: After the transport studies were over, the solution on the apical side of each well was collected. Cell injury caused by SLG-30 was determined by tracking the LDH release. The cell precipitate and the monolayers left on the filters were solubilized with 1% (v/v) Triton X-100. The solutions from apical sides and the lysates were centrifuged for 7 min at 200× g at a temperature of 4 °C. The activities of LDH in the supernatant were measured. (LDHrelease) stands for the activity of the LDH released into the apical side in the existence of SLG-30. (LDHcell) stands for the activity of the LDH obtained from the cell lysate. LDHreleased% was calculated by the following equation:LDHrelease% = LDHrelease × 100/(LDHrelease + LDHcells)

rat small intestines = experiment: In situ closed-loop enteric absorption of CF with absorption enhancers; format: in vivo; details: for Enhancement Ratio (AUC with enhancer/AUC control without enhancer): CF 0.5 mg/kg, rat small intestine
Method: The enteric absorption of CF was examined by an in situ closed-loop method, as reported previously. The experiments were carried out in accordance with the guidelines of the Animal Ethics Committee at Kyoto Pharmaceutical University. The protocols were approved by this Committee (permit number: 16-12-069, permit date: 14 April 2016). The rats were starved overnight for approx. 16 h pre-dosing, but water was freely available. After inducing anesthesia with sodium pentobarbital which was administered intraperitoneally at a dose of 32 mg/kg body weight, the rats were placed under a heat lamp to maintain a body temperature at around 37 °C, and the intestines were exposed using a midline-abdominal incision. After the bile duct was ligated, the intestines were washed with phosphate buffered saline (PBS, pH 7.4), and the remaining buffer solution was expelled with air. Enteric cannulation was performed at both ends using polyethylene tubing, and the distal parts of the small intestines were clipped by forceps. The dosing solutions (3 mL) with or without absorption enhancers kept at 37 °C, were directly introduced into the lumen of the enteric loop through a cannulated opening in the proximal part of the small enteric loop, which was then closed by clipping with another forceps. The jugular vein was exposed, and approx. 0.3 mL of blood was collected via a direct puncture into heparinized syringes at predetermined time intervals up to 240 min. The samples were immediately centrifuged at 12,000 rpm (15,000× g) for a period of 5 min to obtain the plasma fraction, which was stored on ice for further analysis. CF fluorescence signals in these plasma samples were detected after the treatment with the same volume of acetonitrile using a fluorescence spectrophotometer, Powerscan1 HT supplied by BioTek Instruments (Winooski, VT, USA) at an excitation wavelength of 485 nm and an emission wavelength of 535 nm. There was no significant background fluorescence in the plasma when the fluorescence intensities of CF were determined in this study. The peak drug concentrations (Cmax) and the time to reach the peak drug concentrations (Tmax) in the plasma were directly determined from the plasma concentration–time profiles. The area under the curve (AUC) was calculated by the trapezoidal method from pre-dose (time zero) till the administration of the final sample. The absorption enhancement ratios of CF, with or without absorption enhancers, were calculated as follows: Absorption enhancement ratio = AUCwith enhancer/AUCcontrol without enhancer

Caco-2 cell monolayers [2] = experiment: Transport of CF across Caco-2 cell monolayers; format: in vitro ADME, Human; details: 10 µM CF
Method: as §1, with “After removing the washing solution by aspiration, 500 µL of 10 µM CF in a HBSS (pH 6.0) solution with or without various concentrations (0.001% v/v, 0.01% v/v, 0.025% v/v, 0.05% v/v, and 0.1% v/v) of SLG-30, 0.1% (w/v) and 1% (w/v) NaGC or 0.05% (w/v) sodium laurate were added to the apical side at zero time, whereas precisely 1500 µL of HBSS (pH 7.4) was added to the basal side at 37 °C. The cells were kept at 37 °C and 5% CO2 and were continuously agitated on a shaker during the transport experiments.” left out
as §2, with “The samples from the basal side were withdrawn at predetermined time points up to 24 h. The samples were replaced with an equal volume of HBSS (pH 7.4).” left out

[3] = tested on: brush-border membrane vesicles (BBMVs); experiment: Membrane fluidity of BBMVs by fluorescence polarization (fluorescence anisotropy); details: rat BBMVs, 37 °C, SLG-30 0.1-1.0% v/v, vs control, n = 4
Method: To prepare BBMVs, we followed the methods as reported previously with a slight modification. Briefly, an in situ small intestinal loop was prepared in each rat, as mentioned above, and then, PBS (pH 7.4) was administered into the loop. The fat was trimmed off from the small intestine and mesentery. Then, the whole small intestine was soaked in ice-cold PBS (pH 7.4). The small intestine was divided into 10 cm segments. Mucosa was scraped out with a slide glass from each of these segments and used for subsequent studies. BBMVs were prepared by the divalent cation precipitation method using MgCl2 in the presence of ethylenebis (oxyethylenenitrilo) tetraacetic acid (EGTA). Briefly, the collected mucosa was homogenized in a buffer containing mannitol (300 mM), EGTA (5 mM), and Tris (pH 7.4) (12 mM) by using a tissue homogenizer. An aqueous solution of 10 mM magnesium chloride was added to the homogenate. The homogenate was centrifuged at 3000× g for 15 min. The supernatant was then centrifuged at 32,000× g for 30 min. The pellet was resuspended in a buffer containing mannitol (300 mM), EGTA (5 mM), and Tris (pH 7.4) (12 mM) by using a 26-G needle. The protein concentration was determined by the BCA method using bovine serum albumin as a standard, and the final concentration was adjusted to 1 mg/ml in each Eppendorf tube. The samples were frozen by liquid nitrogen and kept at −80 °C for further studies.
The BBMVs (100 μg protein) were incubated with 1 μM DPH, with 0.5 μM tma-DPH or with 5 μM DNS-Cl in HEPES-Tris buffer (25 mM HEPES, 5.4 mM KCl, 1.8 mM CaCl2, 0.8 mM MgSO4, 140 mM NaCl, 5 mM glucose, pH 7.4 adjusted by 1 M Tris) in the dark at 37 °C for 30 min [25, 28]. Then, various concentrations (0.1% v/v, 0.25% v/v, 0.5% v/v, and 1.0% v/v) of SLG-30 were added. Then, the samples were incubated in the dark for 1 min at 37 °C. For the control group, the same procedure was carried out by adding the HEPES-Tris buffer only. The fluorescence intensities and the steady-state polarization of fluorescence expressed as the fluorescence anisotropy, r, of the labeled membrane vesicles were measured at 37 °C. The excitation and emission wavelengths were λex = 360 nm, and λem = 430 nm for DPH and tma-DPH and λex = 380 nm and λem = 480 nm for DNS-Cl. The measurements were carried out by using a Hitachi Spectrofluorometer (F-2000 Spectrofluorometer, Hitachi Seisakusho Corp, Yokohama, Japan) equipped with a polarizer set.
The fluorescence anisotropy (r) was calculated using the following equation: r=IV−IH/IV+2IH where IV and IH respectively represent the […] fluorescence intensities to the polarized excitation plane.

[4] = in situ closed loop, 0.5% (v/v) SLG-30, 0.5% (w/v) sodium laurate, 1% (w/v) sodium glycocholate

How did the TEER values (Caco-2 cell monolayers [1]; 0.1% (w/v) NaGC) turn out when C[C@H](CCC(=O)NCC(=O)[O-])[C@H]1CC[C@H]2[C@@H]3[C@H](O)C[C@@H]4C[C@H](O)CC[C@]4(C)[C@H]3C[C@H](O)[C@]12C.[Na+] [Sodium glycocholate, sodium glycocholate] was run?
The TEER values was “Almost no effect”.

And the TEER values (Caco-2 cell monolayers [1]; 1% (w/v) NaGC)?
The TEER values was “significantly decreased then recovered to the baseline”.

And the “release of LDH from Caco-2 cells vs control” value (Caco-2 cells; 0.1% (w/v) and 1% (w/v) NaGC)?
The value was “Neither 0.1% (w/v) nor 1% (w/v) of NaGC increased the release of LDH”.

And the “Enhancement Ratio (AUC with enhancer/AUC control without enhancer)” value (rat small intestines; [4])?
Its value is 4.5.

What about the “AUC0→240 of CF higher than that of the control group” value (rat small intestines; rat in situ closed loop, 0.5% (v/v) SLG-30 or 1% (w/v) NaGC) of the same compound?
Its value is 4.5 times.

What about the “effect on the transport of CF” value (Caco-2 cell monolayers [2]; 0.1% (w/v) NaGC) of the same compound?
Its value is “insignificant effect”.

What about the “increase of the transport of CF vs control” value (Caco-2 cell monolayers [2]; 1% (w/v) NaGC) of the same compound?
The value was 5 times.

With CCCCCCCCCCCC(=O)[O-].[Na+] [Sodium laurate, sodium laurate] as the compound, how does the TEER values (Caco-2 cell monolayers [1]; 0.05% (w/v) sodium laurate, without recovering to the baseline) read?
The TEER values was “significantly reduced”.

What about the “activity of LDH released from Caco-2 cells vs control” value (Caco-2 cells; 0.05% (w/v) sodium laurate) of the same compound?
Its value is “significantly increased”.

And the “Enhancement Ratio (AUC with enhancer/AUC control without enhancer)” value (rat small intestines; [4])?
The value was 2.7.

What about the “Tmax of CF” value (rat small intestines; plasma CF (0.5 mg/kg) given with enhancer into rat small intestine, in situ closed loop, 0.5% (v/v) SLG-30, 0.5% (w/v) sodium laurate, 1% (w/v) sodium glycocholate, mean ± S.E., n = 3) of the same compound?
The value was “approximately 15 min”.

And the “increase of the transport of CF vs control” value (Caco-2 cell monolayers [2]; 0.05% (w/v) sodium laurate)?
Its value is 94 times.

Which results are given for CC(C)CCC[C@@H](C)[C@H]1CC[C@H]2[C@@H]3CC=C4C[C@@H](O)CC[C@]4(C)[C@H]3CC[C@]12C [cholesterol]?
fluorescence anisotropy of tma-DPH (outer lipid bilayers) ([3]; 0.5 μM tma-DPH): increased the fluorescence anisotropy; fluorescence anisotropy of DPH (inner lipid bilayers) ([3]; 1 μM DPH): increased the fluorescence anisotropy; fluorescence anisotropy of DNS-Cl (protein portion) ([3]; 5 μM DNS-Cl, p < 0.01): increased the fluorescence anisotropy
